Converted amounts (≈) assume the structure as drawn.

For this data set the following is noted: buffer; pH 7.4; 200.0 µM.
Take `O=C(Nc1ccccc1Cl)NC1(C(=O)N2CCOCC2)CCCCC1`: the solubility (kinetic) stood at 25.8 µg/mL (≈ 70.5 µM).
The same measure for `Cc1ccc(-n2nc3c(c2NC(=O)C(C)(C)C)CS(=O)(=O)C3)cc1`: over 52.1 µg/mL.
For the molecule `Cc1ccc(NC(=O)CN2C(=O)N/C(=C\c3cccnc3)C2=O)cc1`, the solubility (kinetic) was found to be 5.2 µg/mL (≈ 15.5 µM).
Regarding `Cc1cc(NC(=O)C(C)Sc2nc(-c3ccccc3)cc(=O)[nH]2)no1` (configuration not stated), the solubility (kinetic) is 17.4 µg/mL (≈ 48.8 µM).
The result for `Cc1[nH]cnc1C(=O)N/N=C/c1c(Cl)cccc1Cl` reads over 44.6 µg/mL.
`CCOc1ccc(C2(C)NC(=O)N(CCN(C)C)C2=O)cc1` (configuration not stated) returned a solubility (kinetic) of 38.1 µg/mL (≈ 125 µM).
In the case of `Cc1cc(C(=O)N(CCC#N)Cc2cccs2)no1`, the kinetic solubility is over 41.3 µg/mL.
On to `N#Cc1ccccc1OCC(O)CS(=O)(=O)c1ccccc1` (configuration not stated), for which the kinetic solubility is over 47.6 µg/mL.
Molecule `NC(=NC(=O)c1ccc(OCC(F)(F)F)nc1)c1ccc(Cl)cc1` yielded a kinetic solubility of 2 µg/mL (≈ 5.59 µM).
The result for `CC(=O)NCCC(=O)Nc1nc(-c2ccc3c(c2)OCCO3)cs1` reads 13.6 µg/mL (≈ 39.1 µM).
The molecule `Cc1cc(C)cc(OCC(=O)Nc2ccncc2)c1` returned a solubility (kinetic) of 36.7 µg/mL (≈ 143 µM).
The result for `Cc1c(NS(=O)(=O)c2cccc(C(=O)N3CCC(C)CC3)c2)c(=O)n(-c2ccccc2)n1C` reads over 70.3 µg/mL; that for `CC(C)[C@H](NC(N)=O)C(=O)NCCc1ccc(Cl)cc1Cl`, 48.2 µg/mL (≈ 145 µM); that for `CC(Oc1ccc(Cl)cc1C(N)=O)C(=O)N1CCc2ccccc21` (configuration not stated), 9.6 µg/mL (≈ 27.8 µM).
The same measure for `CN1CCN(CC(=O)NC(=O)NC2CCCCC2)CC1`: over 42.4 µg/mL; for `COc1ccc(NC(=O)c2cc(-c3ccccc3)on2)cc1`: under 0.3 µg/mL.
`CCNC(=O)COc1ccc(OCc2ccccc2)cc1` gave a solubility (kinetic) of 29.1 µg/mL (≈ 102 µM).
The result for `Cc1ccc(S(=O)(=O)N2CCN(c3ncnc4sccc34)CC2)cc1` reads 17.5 µg/mL (≈ 46.7 µM); that for `S=C(NCCCc1ccccc1)NCc1ccccc1`, 23.4 µg/mL (≈ 82.3 µM); that for `Cc1ccc(CN2CCN(C3CCOCC3)CC2CCO)cc1` (configuration not stated), over 47.8 µg/mL.
The same measure for `O=C(O)CC(NC(=O)c1ccco1)c1ccco1` (configuration not stated): over 37.4 µg/mL.
For the molecule `CC12CC3CC(C)(C1)CC(N)(C3)C2.Cl`, the kinetic solubility was found to be 29.4 µg/mL.
`CN1C(=O)CSC1=Nc1ccc(Br)cc1` displayed a solubility (kinetic) of 33.3 µg/mL (≈ 117 µM).
The same measure for `COC(=O)c1sc(-c2ccc(Cl)cc2)cc1N`: under 0.6 µg/mL.
The same measure for `Cc1ccc2nc(NC(=O)C3CC3C)sc2c1` (configuration not stated): 2.4 µg/mL (≈ 9.74 µM); for `Cc1cc(C(=O)OCC(=O)c2ccccc2)c2ccccc2n1`: 3.6 µg/mL (≈ 11.8 µM).
The result for `COc1cccc(C(C)NC(=O)c2ccncc2)c1` (configuration not stated) reads over 38.4 µg/mL; that for `Cc1cccc(N2CCN(CC(=O)NCc3ccc(Cl)cc3)CC2)c1C`, 1.6 µg/mL (≈ 4.3 µM).
Turning to `CCOc1ccc(NC(=O)COC(=O)Cc2ccsc2)cc1`, the kinetic solubility was found to be 25.1 µg/mL (≈ 78.6 µM).
The result for `O=C(NC1CC1)C1CC(=O)N(c2cccc(Cl)c2)C1` (configuration not stated) reads over 41.8 µg/mL; that for `Cc1ccc(-c2noc(CNC(=O)c3ccoc3C)n2)cc1`, 32.6 µg/mL (≈ 110 µM).
The result for `Cl.O=C(O)Cc1cnc[nH]1` reads over 24.4 µg/mL; that for `O=C(O)c1ccc(-n2c(/C=C/c3ccccc3)nc3ccccc3c2=O)cc1`, over 55.3 µg/mL; that for `CN(C)c1ccc(C(=O)N2CCNC(=O)C2CC(=O)Nc2ccc(F)cc2)cc1` (configuration not stated), 55.1 µg/mL (≈ 138 µM).
In turn, `CSc1ncccc1C(=O)Nc1cc(C)ccn1` displayed a kinetic solubility of over 38.9 µg/mL.
The result for `COc1ccc(OC)c(C(=O)c2ccccn2)c1` reads over 36.5 µg/mL.
`COc1ccc(S(N)(=O)=O)cc1C(=O)OCC1CCCCC1` yielded a kinetic solubility of 48.1 µg/mL (≈ 147 µM).
The result for `CC(C)(C)N1CC(C(=O)Nc2cccc(Cl)c2Cl)CC1=O` (configuration not stated) reads over 49.4 µg/mL; that for `CC(=O)c1cc(CN2CCN(C(C)C)C(CCO)C2)cs1` (configuration not stated), 35.7 µg/mL (≈ 115 µM).
The result for `COc1cccc(NC(=O)C2C(c3ccccc3)C2(Cl)Cl)c1` (configuration not stated) reads 7 µg/mL (≈ 20.8 µM); that for `CC(C)NC(=O)CCc1nc2cccnc2n1-c1ccccc1`, 43.3 µg/mL (≈ 140 µM); that for `O=C(O)c1nccnc1C(=O)Nc1ccc(Cl)cc1Cl`, over 46.8 µg/mL.
The result for `Cc1nc2ccccn2c1-c1ccnc(=S)[nH]1` reads 31.8 µg/mL (≈ 131 µM); that for `COc1ccccc1NS(=O)(=O)c1ccc(C(=O)NCc2ccco2)cc1`, 53 µg/mL (≈ 137 µM); that for `Cc1ccc(NC(=O)C(c2ccccc2)c2ccccc2)nc1`, 11.5 µg/mL (≈ 38 µM).
In the case of `COC(=O)C(Cc1ccccc1)NC(=O)CC(C)CC(=O)Nc1ccc(C)cc1` (configuration not stated), the kinetic solubility was found to be 14.3 µg/mL (≈ 36.1 µM).
`Cc1ccc(C(=O)NC2(O)C(=O)c3ccccc3C2=O)cc1C` yielded a solubility (kinetic) of over 46.4 µg/mL.
For `CC(=O)Nc1ccc(S(=O)(=O)N2CCCC2)cc1`, the kinetic solubility was over 40.2 µg/mL.
The same measure for `COc1ccc(S(=O)(=O)N2CCNC(=O)CC2)cc1`: 35.1 µg/mL (≈ 123 µM); for `O=C(NCCCN1CCOCC1)C(c1ccccc1)c1ccccc1`: over 50.8 µg/mL; for `CN(Cc1ccccc1)C(=O)COC(=O)Cc1ccc(Cl)cc1`: 46.3 µg/mL (≈ 140 µM).
In turn, `Cc1cccc(-c2nc(CNC(=O)c3ccco3)cs2)c1` returned a solubility (kinetic) of over 44.8 µg/mL.

The values above are taken from PubChem BioAssay AID1996.
